Data published in patent US20040157891A1, “Inhibitor of cox” (FUJISAWA PHARMACEUTICAL CO., LTD., priority 2003, published 2004).

Experiments:
arthritic rats = assay: Analgesic activity: effect on adjuvant arthritis in rats (Randall-Selitto); format: in vivo, Lewis rats; settings: single dose 3.2 mg/kg; mechanical pain threshold of left hind paw 2 hrs after administration; ratio to non-treated rats
COX-I = target: T1, COX-I (Homo sapiens, UniProt P23219); assay: Whole blood assay for COX-I (TXB2 production); format: cell-based; settings: 1 hr at 37° C.
T1 construct: Fresh blood was collected by syringe without anticoagulants from volunteers with consent; from tissue; host or cells: fresh human whole blood from volunteers, left to clot; TXB2 read-out
T1 sequence (P23219 24-599): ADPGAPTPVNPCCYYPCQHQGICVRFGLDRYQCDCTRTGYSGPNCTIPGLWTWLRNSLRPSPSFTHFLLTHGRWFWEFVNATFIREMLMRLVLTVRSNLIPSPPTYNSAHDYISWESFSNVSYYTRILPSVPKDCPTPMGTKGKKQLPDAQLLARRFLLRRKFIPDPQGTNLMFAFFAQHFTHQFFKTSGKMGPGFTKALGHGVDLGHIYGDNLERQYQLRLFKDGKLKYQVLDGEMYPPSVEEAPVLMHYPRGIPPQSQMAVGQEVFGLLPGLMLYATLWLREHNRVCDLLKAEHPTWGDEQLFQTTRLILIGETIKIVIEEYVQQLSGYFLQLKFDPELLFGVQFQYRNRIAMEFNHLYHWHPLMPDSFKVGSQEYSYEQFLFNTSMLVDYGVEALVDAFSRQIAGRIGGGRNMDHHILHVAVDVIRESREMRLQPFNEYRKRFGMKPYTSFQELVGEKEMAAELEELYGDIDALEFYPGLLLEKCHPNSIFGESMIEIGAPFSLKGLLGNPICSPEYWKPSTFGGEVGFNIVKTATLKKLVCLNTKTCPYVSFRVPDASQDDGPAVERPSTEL
Experimental: Whole blood assay for COX-I
Fresh blood was collected by syringe without anticoagulants from volunteers with consent. The subjects had no apparent inflammatory conditions and had not taken any medication for at least 7 days prior to blood collection.
500 μL Aliquots of human whole blood were immediately incubated with 2 μL of either dimethyl sulfoxide vehicle or a test compound at final concentrations for 1 hr at 37° C. to allow the blood to clot. Appropriate treatments (no incubation) were used as blanks. At the end of the incubation, 5 μL of 250 mM Indomethacin was added to stop the reaction. The blood was centrifuged at 6000×g for 5 min at 4° C. to obtain serum. A 100 μL aliquot of serum was mixed with 400 μL methanol for protein precipitation. The supernatant was obtained by centrifuging at 6000×g for 5 min at 4° C. and was assayed for TXB2 using an enzyme immunoassay kit according to the manufacturer's procedure. For a test compound, the results were expressed as percent inhibition of thromboxane B2(TXB2) production relative to control incubations containing dimethyl sulfoxide vehicle.
The data were analyzed by that a test compound at the indicated concentrations was changed log value and was applied simple linear regression. IC50 value was calculated by least squares method.

COX-II = target: T2, COX-II (Homo sapiens, UniProt P35354); assay: Whole blood assay for COX-II (LPS-induced PGE2 production); format: cell-based; settings: lipopolysaccharide 24 hrs at 37° C.
T2 construct: incubation of the blood with 10 μL of 5 mg/mL lipopolysaccharide for 24 hrs at 37° C. for induction of COX-II; from tissue; host or cells: heparinized fresh human whole blood from volunteers, LPS-stimulated for 24 h; PGE2 read-out
T2 sequence (P35354 18-604): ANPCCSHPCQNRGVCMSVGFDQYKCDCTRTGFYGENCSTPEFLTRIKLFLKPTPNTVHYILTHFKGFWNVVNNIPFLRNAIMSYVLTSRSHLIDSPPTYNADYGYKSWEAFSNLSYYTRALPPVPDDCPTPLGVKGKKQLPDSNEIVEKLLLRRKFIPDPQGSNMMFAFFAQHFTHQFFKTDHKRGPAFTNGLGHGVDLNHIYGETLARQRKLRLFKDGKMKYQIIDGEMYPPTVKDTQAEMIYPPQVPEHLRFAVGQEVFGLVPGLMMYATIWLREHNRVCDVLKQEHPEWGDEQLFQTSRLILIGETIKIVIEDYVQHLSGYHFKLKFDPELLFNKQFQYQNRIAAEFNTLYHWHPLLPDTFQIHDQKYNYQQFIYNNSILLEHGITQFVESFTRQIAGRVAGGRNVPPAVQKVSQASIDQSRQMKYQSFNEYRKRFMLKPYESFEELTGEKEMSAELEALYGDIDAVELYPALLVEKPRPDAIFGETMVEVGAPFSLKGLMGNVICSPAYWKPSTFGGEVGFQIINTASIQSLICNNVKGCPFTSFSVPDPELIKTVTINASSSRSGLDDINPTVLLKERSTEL
Experimental: Whole Blood Assay for COX-II
Fresh blood was collected in heparinized tubes by syringe from volunteers with consent. The subjects had no apparent inflammatory conditions and had not taken any medication for at least 7 days prior to blood collection.
500 μL aliquots of human whole blood were incubated with either 2 μL dimethyl sulfoxide vehicle or 2 μL of a test compound at final concentrations for 15 min at 37° C. This was followed by incubation of the blood with 10 μL of 5 mg/mL lipopolysaccharide for 24 hrs at 37° C. for induction of COX-II. Appropriate PBS treatments (no LPS) were used as blanks. At the end of the incubation, the blood was centrifuged at 6000×g for 5 min at 4° C. to obtain plasma. A 100 μL aliquot of plasma was mixed with 400 μL methanol for protein precipitation. The supernatant was obtained by centrifuging at 6000×g for 5 min at 4° C. and was assayed for prostaglandin E2 (PGE2) using a radioimmunoassay kit after conversion of PGE2 to its methyl oximate derivative according to the manufacturer's procedure.
For a test compound, the results were expressed as percent inhibition of PGE2 production relative to control incubations containing dimethyl sulfoxide vehicle. The data were analyzed by that a test compound at the indicated concentrations was changed log value and was applied simple linear regression. IC50 value was calculated by least squares method.

SMILES | melting point | The coefficient of analgesic (arthritic rats) | IC50 (COX-I) | IC50 (COX-II)
CCOC(=O)c1nc(-c2ccc(OC)cc2)c(-c2ccc(OC)cc2)o1 [Example 1-2, Ethyl 4,5-bis(4-methoxyphenyl)-1,3-oxazole-2-carboxylate] | 95 to 97 °C |  |  | 
COc1ccc(-c2nc(C(N)=O)oc2-c2ccc(OC)cc2)cc1 [Example 2, 4,5-Bis(4-methoxyphenyl)-1,3-oxazole-2-carboxamide] | 133 to 135 °C |  |  | 
COc1ccc(-c2nc(C(C)=O)oc2-c2ccc(OC)cc2)cc1 [Example 5, 1-[4,5-Bis(4-methoxyphenyl)-1,3-oxazol-2-yl]ethanone] | 139 to 140 °C |  |  | 
COc1ccc(-c2nc(C(=O)c3ccccc3)oc2-c2ccc(OC)cc2)cc1 [Example 6, [4,5-Bis(4-methoxyphenyl)-1,3-oxazol-2-yl](phenyl)methanone] | 164 to 166 °C |  |  | 
COc1ccc(-c2nc(C(F)F)oc2-c2ccc(OCCO)cc2)cc1 [Example 12, 2-{4-[2-(Difluoromethyl)-4-(4-methoxyphenyl)-1,3-oxazol-5-yl]phenoxy}ethanol] | 114 to 116 °C | >1.5 | < 10 nM | > 100 nM
COc1ccc(-c2nc(C(F)F)oc2-c2ccc(OCCO)cc2)cn1 [Example 33, 2-{4-[2-(Difluoromethyl)-4-(6-methoxy-3-pyridinyl)-1,3-oxazol-5-yl]phenoxy}ethanol] | 126 to 128 °C | >1.5 | < 10 nM | > 100 nM
COc1ccc(-c2nc(C(F)(F)F)oc2-c2ccc(OCCNS(C)(=O)=O)cc2)cn1 [Example 54, N-(2-{4-[4-(6-Methoxy-3-pyridinyl)-2-(trifluoromethyl)-1,3-oxazol-5-yl]phenoxy}ethyl)methanesulfonamide] |  | >1.5 | < 10 nM | > 100 nM
COc1ccc(-c2nc(C(F)(F)F)oc2-c2ccc(OCCNC(N)=O)cc2)cn1 [Example 55, N-(2-{4-[4-(6-Methoxy-3-pyridinyl)-2-(trifluoromethyl)-1,3-oxazol-5-yl]phenoxy}ethyl)urea] |  | >1.5 | < 10 nM | > 100 nM
COc1ccc(-c2oc(C(=O)c3ccccc3)nc2-c2ccc(OC)nc2)cc1 [Example 73, [5-(4-Methoxyphenyl)-4-(6-methoxy-3-pyridinyl)-1,3-oxazol-2-yl](phenyl)methanone] | 156 to 158 °C |  |  | 
COc1ccc(-c2oc(C(F)F)nc2-c2ccc(OC)nc2)cc1 [Example 77, 5-[2-(Difluoromethyl)-5-(4-methoxyphenyl)-1,3-oxazol-4-yl]-2-methoxypyridine] | 87 to 89 °C |  |  | 
COc1ccc(-c2oc(CO)nc2-c2ccc(C#N)cc2)cc1 [Example 79, 4-[2-(Hydroxymethyl)-5-(4-methoxyphenyl)-1,3-oxazol-4-yl]benzonitrile] | 151 to 153 °C |  |  | 
COCc1nc(-c2ccc(OC)cc2)c(-c2ccc(C#N)cc2)o1 [Example 80-3, 4-[2-(Methoxymethyl)-4-(4-methoxyphenyl)-1,3-oxazol-5-yl]benzonitrile] | 85 to 86 °C |  |  | 
COc1ccc(-c2nc(C3CC3)oc2-c2ccc(OCCO)cc2)cn1 [Example 118, 2-{4-[2-Cyclopropyl-4-(6-methoxy-3-pyridinyl)-1,3-oxazol-5-yl]phenoxy}ethanol] |  | >1.5 | < 10 nM | > 100 nM
COc1ccc(-c2nc(C3CC3)oc2-c2ccc(OCCNS(C)(=O)=O)cc2)cn1 [Example 122, N-(2-{4-[2-Cyclopropyl-4-(6-methoxy-3-pyridinyl)-1,3-oxazol-5-yl]phenoxy}ethyl)methanesulfonamide] |  | >1.5 | < 10 nM | > 100 nM
